Assay results from PubChem BioAssay AID504760 (National Center for Advancing Translational Sciences (NCATS), 2011).

System: mouse plasma stability, LC-MS/MS, 48 h
Assay: Inhibitors of Cruzain: Mouse Plasma Stability Profiling
Conditions: at 2 µM; active compounds read high
Excerpt: Chagas Disease is a neglected tropical disease that affects over 16 million people in Latin America. The cysteine protease cruzain is essential for the survival Trypanosoma cruzi, the parasitic agent responsible for Chagas disease. Potential intervention for T. cruzi includes the inhibition of cruzain. This bioassay will summarize the ongoing development of small molecule cruzain inhbitiors. Currently, a screen of ~200k compounds and through extensive follow-up work a probe was identified. To further characterize the probe, it was tested in in vitro ADME assays. The stability of the lead compound in mouse plasma is tested because this parameter has a significant impact on many ADME-concerned properties of drugs, such as uptake, distribution, transport, and bioavailability. NIH Chemical Genomics Center [NCGC] NIH Molecular Libraries Probe Production Centers Network [MLPCN] MLSCN Grant: DA024891-01 PI Name: Dr. Brian Shoichet; University of California, San Francisco
2uM of compound is incubated in mouse plasma; the reference compound is procaine. Compounds are incubated at 37 deg C for the pre-determined time periods and the when aliquots are removed. Samples are analyzed with LC-MS/MS.

percent remaining: 95%
SMILES: Cc1ccc(OCCn2c(CCNC(=O)C3CCCCC3)nc3ccccc32)cc1
